In publication PMC9427925, “The measurement of binding affinities by NMR chemical shift perturbation” (Journal of Biomolecular Nmr, 2022) one finds Kd data, which are given here for 1 molecule.

The assay deals with T1, HisJ (Escherichia coli, UniProt P0AEU0).
T1 construct: HisJ (241 residues)
Nature of the assay: […] HSQC/TROSY NMR chemical shift perturbation titration, global fit of all 1H and […] shifts. It is filed as binding.

T1 sequence (P0AEU0 23-260): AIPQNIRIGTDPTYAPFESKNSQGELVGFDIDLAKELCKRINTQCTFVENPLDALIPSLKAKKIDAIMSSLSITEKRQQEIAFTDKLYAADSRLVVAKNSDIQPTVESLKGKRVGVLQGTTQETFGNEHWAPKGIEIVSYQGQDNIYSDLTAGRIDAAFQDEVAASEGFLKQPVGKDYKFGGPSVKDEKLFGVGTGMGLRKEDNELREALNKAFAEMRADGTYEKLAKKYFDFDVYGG

The term Kd denotes the equilibrium constant for the complex coming apart. As for `NCCCC[C@H](N)C(=O)O` [lysine], the Kd stood at 55.3 ± 0.4 µM.
